Source: patent publication US9504674B2, “TrkB agonists and methods of use” (EMORY UNIVERSITY, priority 2010, dated 2016)

What was measured:
Akt = Akt activation / p-Akt 473 ELISA in primary cortical neurons; type: cell-based, rat; settings: 500 nM
Experimental: The cell lysates (20 μg/sample) from the neurons treated with various indicated drugs were analyzed by p-Akt ELISA. The quantitative p-Akt activity in ELISA correlated with TrkB activity. Results were expressed as mean (SEM(*P<0.05, compared with the vehicle control group, Student t test, n=3).
Phospho-Akt ELISA assay by the synthetic compounds in cortical neurons. Primary cortical cultures from […] rat embryos were treated with 500 nMof various 7,8-DHF derivatives. The cell lysates were analyzed by the ELISA (left panel) (*, P<0.05; ***, P<0.001 vs vehicle, Student's t test). Different doses of 4′-DMA-7,8-DHF and 7,8-DHF were incubated with primary cortical neurons for 15 min. The cell lysates (20 μg) were analyzed with p-Akt ELISA (right panel) (*, P<0.05; **, P<0.01; ***, P<0.001 vs control; one-way ANOVA: b, P<0.01; c, P<0.001 vs 7,8-DHF at same concentration, Student's t test). […]
7,8-dihydroxyflavone (7,8-DHF) is a small molecular TrkB agonist. […] The cell lysates were analyzed by immunoblotting. […]
To compare the TrkB activation by these synthetic compounds, primary cortical cultures were prepared. […] TrkB activation was monitored at different time points.
Additional compounds are listed as designated from a to m (FIG. 6A). […] The cell lysates were analyzed by immunoblotting. […] Moreover, p-Akt ELISA was monitored to quantitatively analyze the agonistic activities of these compounds.

TrkB = molecular target: T1, TrkB (Mus musculus, UniProt P15209); experiment: TrkB activation in brain of chronically treated mice (immunoblotting p-TrkB 817, immunohistochemistry p-TrkB Y816); type: in vivo; settings: for TrkB activation in mouse brain after chronic treatment: 5 mg/kg oral 21 days, brain lysates, immunoblotting p-TrkB 817; for TrkB activation in the dentate gyrus: 5 mg/kg oral, after 21 days treatment, immunohistochemistry
T1 construct: from tissue; host or cells: brain of wild-type C57BL/6J mice
T1 sequence (P15209 32-821): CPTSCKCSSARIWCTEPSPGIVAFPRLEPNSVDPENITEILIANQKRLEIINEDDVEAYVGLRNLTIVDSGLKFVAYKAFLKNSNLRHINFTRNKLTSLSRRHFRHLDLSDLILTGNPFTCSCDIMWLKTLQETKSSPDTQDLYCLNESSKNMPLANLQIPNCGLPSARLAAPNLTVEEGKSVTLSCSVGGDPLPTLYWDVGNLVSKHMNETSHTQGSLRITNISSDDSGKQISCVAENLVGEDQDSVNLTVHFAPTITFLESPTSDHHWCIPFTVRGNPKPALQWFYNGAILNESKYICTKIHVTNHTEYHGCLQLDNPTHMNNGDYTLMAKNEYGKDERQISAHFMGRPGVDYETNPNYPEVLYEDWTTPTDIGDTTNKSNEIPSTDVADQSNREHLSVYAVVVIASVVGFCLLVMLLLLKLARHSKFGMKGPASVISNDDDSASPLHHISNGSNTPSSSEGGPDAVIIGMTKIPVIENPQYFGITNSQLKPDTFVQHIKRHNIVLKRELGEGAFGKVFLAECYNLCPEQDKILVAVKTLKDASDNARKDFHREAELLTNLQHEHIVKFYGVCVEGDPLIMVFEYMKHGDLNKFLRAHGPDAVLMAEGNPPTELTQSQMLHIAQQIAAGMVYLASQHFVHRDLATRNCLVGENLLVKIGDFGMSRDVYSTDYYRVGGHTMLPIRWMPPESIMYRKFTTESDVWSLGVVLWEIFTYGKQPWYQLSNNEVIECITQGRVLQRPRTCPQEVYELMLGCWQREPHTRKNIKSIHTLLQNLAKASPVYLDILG
Experimental: Paraffin section were deparaffinized in xylene and rehydrated gradient ethanol solution. Samples were boiled in 10 mM sodium citrate buffer for 20 min for antigen retrieval purpose. Brain sections were incubated with anti-TrkB (BD biosciences, San Jose, Calif.) 1:50, and anti-p-TrkB Y816 was used at 1:300 dilution. Secondary antibody were applied using antirabbit-Alexa 594 (red), antimouse-FITC (green). DAPI (blue) was used for nuclear staining.
The brain lysates from above chronically treated mice were analyzed by immunoblotting with anti-p-TrkA 794 and p-TrkB 817.
Brain tissues were fixed in 4% paraformaldehyde overnight followed by paraffin embedding. Sections of […] were cut. For immunohistochemical staining, brain sections were deparaffinized in xylene and rehydrated in graded alcohols. Endogenous peroxidase activity was blocked by 3% hydrogen peroxide for 5 minutes and all slides were boiled in 10 mM sodium citrate buffer (pH 6.0) for 10 minutes. Phosphorylated Trk B816 and Trk B were detected using specific antibodies. Paraffin section were deparaffinized in xylene and rehydrated gradient ethanol solution. Samples were boiled in 10 mM sodium citrate buffer for 20 min for antigen retrieval purpose. Brain sections were incubated with anti-TrkB (BD biosciences, San Jose, Calif.) 1:50, p-TrkB 1:300 dilution. Secondary antibodies were applied using anti-rabbit-Alexa 594 (red), anti-mouse-FITC (green). DAPI (blue) was used for nuclear staining
Administration of chronic, but not acute, monoamine antidepressant drugs enhances adult neurogenesis in dentate gyrus of rodents and non-human primates, while blocking neurogenesis by irradiation attenuates the behavioral antidepressant-like effects of these drugs in some rodent strains. […] Ablation of TrkB specifically in hippocampal neural progenitor cells prevents chronic antidepressant-induced neurogenesis and renders the mice behaviorally non-responsive to chronic antidepressant treatment. To test whether increasing TrkB activation by these small agonists would elevate the neurogenesis, adult male C57BL/6J mice were orally injected with either vehicle, 7,8-DHF, or 4′-DMA-7,8-DHF (5 mg/kg) for 21 days. At the end of treatment (day 21), animals were injected with BrdU (50 mg/kg, intraperitoneally) to label dividing cells and were sacrificed 2 h later. BrdU immunohistochemistry was used to assess progenitor proliferation (FIG. 4A). […] Therefore, chronic treatment with TrkB agonists promotes neurogenesis in the hippocampus of mice.
Accumulating evidence supports that BDNF plays a role in mediating therapeutic effects of antidepressants. Infusion of exogenous BDNF into hippocampus or brain stem has anti-depressant-like behavioral effect. A forced swim test is broadly used for screening of potential antidepressant drugs and is widely used to measure antidepressant activity. To explore whether 4′-DMA-7,8-DHF and 7,8-DHF have any antidepressant effect like BDNF, a forced swim test was conducted after chronic treatment of the mice for 21 days via oral injection.
BDNF/TrkB signaling plays an role in mediating antidepressants' therapeutic effects. A forced swim test is broadly used for screening of potential antidepressant drugs and is widely used to measure antidepressant activity. To explore whether imidazole flavanoid and compound i have any antidepressant effect like BDNF, a forced swim test was conducted after chronic treatment of the mice for 21 days via oral administration.

| TrkB activation in mouse brain after chronic treatment (TrkB; listed as imidazole flavanoid) | TrkB activation in mouse brain after chronic treatment (TrkB; listed as imidazole-derivative) | Structure (SMILES) | Akt activation pattern over time (Akt; primary neurons, time course) | TrkB activation in mouse brain after chronic treatment (TrkB) | TrkB activation in the dentate gyrus (TrkB) | agonistic activity by p-Akt ELISA in neurons (Akt; 20 min, primary rat cortical neurons (13 DIV)) |
| --- | --- | --- | --- | --- | --- | --- |
|  |  | CN(C)c1ccc(-c2cc(=O)c3ccc(O)c(O)c3o2)cc1 [4′-DMA-7,8-DHF, 4′-dimethylamino-7,8-dihydroxyflavone] | temporally coupled to TrkB activation | evidently provoked TrkB | markedly activated |  |
|  |  | O=c1cc(-c2ccccc2)oc2c(O)c(O)ccc12 [7,8-DHF, 7,8-dihydroxyflavone, reference compound] |  | evidently provoked TrkB | markedly activated |  |
| evidently provoked TrkB | stronger activity than compound i | CN(C)c1ccc(-c2cc(=O)c3ccc4nc[nH]c4c3o2)cc1 [compound m, 8-(4-(dimethylamino)phenyl)chromeno[7,8-d]imidazol-6(1H)-one] |  |  |  | possesses the strongest effect in activating TrkB receptor |
